Where “and” joins values, the source holds several entries; their conditions need not be identical. Identical values can stand only once. Like-named read-outs stand apart in the source and are kept apart here.
Legend:
[1] = test system: MX-1 mammary tumor cells; test: Cytotoxic activity on MX-1 mammary tumor cells in culture; conditions: for IC50: read-out: Cytotoxicity on MX-1, IC50
[2] = target: albumin (Homo sapiens, UniProt P02768); test: Binding of compounds to albumin
[3] = Hydrophobicity by relative elution time from a C18 HPLC column; assay type: physicochemical; conditions: for HPLC retention time (min) Condition 1: acetonitrile / ammonium acetate buffer pH 6.4 with 5 mM TBAP gradient, 0.8 mL/min; for HPLC retention time (min) Condition 1 / HPLC retention time (min) Condition 2: column temperature 35° C.; for HPLC retention time (min) Condition 2: acetonitrile/water gradient 50:50 to 90:10, 1 mL/min; for HPLC retention time (min) Condition 2, column temperature 70° C.: acetonitrile/water gradient, 1 mL/min, **column temperature was set at 70° C.
Description: To increase the penetration and retention of a drug released from a device such as a stent into the vascular wall or wall of other vessel or tissue, several drugs were modified to increase their hydrophobicity. […] […] The longer the elution time, the more hydrophobic the compound.

[4] = test system: MX-1 mammary tumor cells
[5] = MX-1 mammary tumor cells in culture, drug itself
[6] = smaller number indicates greater binding affinity, read-out: Albumin Binding, KD

Chain of albumin (P02768 25-609, species assumed): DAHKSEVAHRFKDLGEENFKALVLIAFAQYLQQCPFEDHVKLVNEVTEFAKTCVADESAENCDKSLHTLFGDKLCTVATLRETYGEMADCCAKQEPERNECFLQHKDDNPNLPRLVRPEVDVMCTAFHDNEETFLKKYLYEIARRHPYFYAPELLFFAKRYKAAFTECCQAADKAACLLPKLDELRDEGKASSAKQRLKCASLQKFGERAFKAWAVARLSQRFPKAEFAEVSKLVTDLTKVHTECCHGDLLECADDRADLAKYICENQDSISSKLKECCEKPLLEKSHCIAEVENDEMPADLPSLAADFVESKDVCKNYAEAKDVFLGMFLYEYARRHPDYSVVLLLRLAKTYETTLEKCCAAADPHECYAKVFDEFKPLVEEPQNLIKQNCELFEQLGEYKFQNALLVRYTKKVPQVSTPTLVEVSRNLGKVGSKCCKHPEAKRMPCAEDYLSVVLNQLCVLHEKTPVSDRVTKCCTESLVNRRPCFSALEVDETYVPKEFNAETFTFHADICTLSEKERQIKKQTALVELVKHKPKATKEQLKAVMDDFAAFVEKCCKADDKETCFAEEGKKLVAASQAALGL

Row | Compound | IC50 [1, 5] [µM] | HPLC retention time (min) Condition 1 [3] [min] | HPLC retention time (min) Condition 2 [3] | also measured
1 | CC(=O)OC1C(=O)C2(C)C(O)CC3OCC3(OC(C)=O)C2C(OC(=O)c2ccccc2)C2(O)CC(OC(=O)C(OC(=O)c3ccccc3)C(NC(=O)c3ccccc3)c3ccccc3)C(C)=C1C2(C)C (centres unmarked) [Compound 1] | 30 | – | – | Kd [2, 6]: 103 µM
2 | CC(=O)OC12COC1CC(O)C1(C)C(=O)C(O)C3=C(C)C(OC(=O)C(OC(=O)c4ccccc4)C(NC(=O)OC(C)(C)C)c4ccccc4)CC(O)(C(OC(=O)c4ccccc4)C21)C3(C)C (centres unmarked) [Compound 2, 2′ BENZOYL DOCETAXEL] | – | – | – | IC50 [1]: 38 µM; Kd [2, 6]: 8.8 µM
3 | CCc1c2c(nc3ccc(O)cc13)-c1cc3c(c(=O)n1C2)COC(=O)[C@]3(O)CC [Compound 6] | 267 | 7.8 | 2.2 min | Kd [2, 6]: 484 µM
4 | CCC(=O)Oc1ccc2nc3c(cc2c1)Cn1c-3cc2c(c1=O)COC(=O)C2(CC)OC(=O)CC (centres unmarked) [Compound 7] | 45 | 19.8 | – | HPLC retention time (min) Condition 2, column temperature 70° C. [3]: 6.1** min
5 | CCCC(=O)Oc1ccc2nc3c(cc2c1)Cn1c-3cc2c(c1=O)COC(=O)[C@@]2(CC)OC(=O)CCC [Compound 8] | 152 | 21.9 | – | –
6 | CCC1(OC(=O)C(C)C)C(=O)OCc2c1cc1n(c2=O)Cc2cc3cc(OC(=O)C(C)C)ccc3nc2-1 (centres unmarked) [Compound 9] | 23 | 22.0 | – | –
7 | CCCCCC(=O)Oc1ccc2nc3c(cc2c1)Cn1c-3cc2c(c1=O)COC(=O)[C@@]2(CC)OC(=O)CCCCC [Compound 10, CAMPTOTHECIN 10,20-DI O HEXONATE] | 8 | 25.3 | – | –
8 | CCC1(OC(=O)CNC(=O)OC(C)(C)C)C(=O)OCc2c1cc1n(c2=O)Cc2cc3cc(OC(=O)CNC(=O)OC(C)(C)C)ccc3nc2-1 (centres unmarked) [Compound 11] | 221 | 20.9 | – | –
9 | CCC1(OC(=O)COC)C(=O)OCc2c1cc1n(c2=O)Cc2cc3cc(OC(=O)COC)ccc3nc2-1 (centres unmarked) [Compound 12] | 372 | 14.1 | – | –
10 | CCC1(OC(=O)CN)C(=O)OCc2c1cc1n(c2=O)Cc2cc3cc(OC(=O)CN)ccc3nc2-1 (centres unmarked) [Compound 13] | 242 | 6.1 | – | –
11 | CCC1(OC(=O)c2ccccc2)C(=O)OCc2c1cc1n(c2=O)Cc2cc3cc(OC(=O)c4ccccc4)ccc3nc2-1 (centres unmarked) [Compound 14] | 740 | 22.9 | – | –
12 | CCC(=O)Oc1ccc2nc3c(c(CC)c2c1)Cn1c-3cc2c(c1=O)COC(=O)[C@@]2(CC)OC(=O)CC [Compound 15] | 28 | 20.8 | – | HPLC retention time (min) Condition 2, column temperature 70° C. [3]: 9.3** min
13 | CCCCCC(=O)Oc1ccc2nc3c(cc2c1)Cn1c-3cc2c(c1=O)COC(=O)C2(CC)OC(=O)CCCCC (centres unmarked) [Compound 16] | 4 | – | – | –
14 | C=CCNC1=C2C[C@@H](C)C[C@H](OC)[C@H](O)[C@@H](C)/C=C(\C)[C@H](OC(N)=O)[C@@H](OC)/C=C\C=C(/C)C(=O)NC(=CC1=O)C2=O [Compound 17AAG, 17AAG, reference compound] | 3 | – | 14.9 min | –
15 | CCCCCCCCCC(=O)Oc1ccc2nc3c(c(CC)c2c1)Cn1c-3cc2c(c1=O)COC(=O)[C@@]2(CC)OC(=O)CCCCCCCCC [Compound 17] | 2000 | – | 31.2 min | –
16 | CCCCCCCCCCCCCC(=O)Oc1ccc2nc3c(c(CC)c2c1)Cn1c-3cc2c(c1=O)COC(=O)[C@@]2(CC)OC(=O)CCCCCCCCCCCCC [Compound 18] | – | – | 31.2 min | Cytotoxicity on MX-1, IC50 [1, 5]: Inactive

Row | Compound | IC50 [1, 5] [µM] | HPLC retention time (min) Condition 1 [3] [min] | HPLC retention time (min) Condition 2 [3] | also measured
17 | CCCCCCCCCCCC(=O)Oc1ccc2nc3c(c(CC)c2c1)Cn1c-3cc2c(c1=O)COC(=O)[C@@]2(CC)OC(=O)CCCCCCCCCCC [Compound 19] | – | – | 31.2 min | Cytotoxicity on MX-1, IC50 [1, 5]: Inactive
18 | CCCCCCCCCCCCCCCCCC(=O)Oc1ccc2nc3c(c(CC)c2c1)Cn1c-3cc2c(c1=O)COC(=O)[C@@]2(CC)OC(=O)CCCCCCCCCCCCCCCCC [Compound 20] | – | – | 30.6 min | Cytotoxicity on MX-1, IC50 [1, 5]: Inactive
19 | CCc1c2c(nc3ccc(OC(=O)CCCC(C)CC)cc13)-c1cc3c(c(=O)n1C2)COC(=O)[C@@]3(CC)OC(=O)CCCC(C)CC (some centres unmarked) [Compound 21] | 295 | – | 40.2 min | –
20 | CCCCCCCCCCCCCCCC(=O)Oc1ccc2nc3c(cc2c1)Cn1c-3cc2c(c1=O)COC(=O)C2(CC)OC(=O)CCCCCCCCCCCCCCC (centres unmarked) [Compound 22] | – | – | 30.5 min | Cytotoxicity on MX-1, IC50 [1, 5]: Inactive
21 | COc1cc2c(c(OC)c1OC)-c1ccc(SC)c(=O)cc1[C@@H](NC(=O)CCNC(=O)N[C@H]1CCc3cc(OC)c(OC)c(OC)c3-c3ccc(SC)c(=O)cc31)CC2 [Compound 24] | – | – | – | IC50 [1]: 37 µM; Kd [2]: 109 µM
22 | COc1cc2c(c(OC)c1OC)-c1ccc(SC)c(=O)cc1[C@@H](NC(=O)CCCCCCCCC(=O)N[C@H]1CCc3cc(OC)c(OC)c(OC)c3-c3ccc(SC)c(=O)cc31)CC2 [Compound 25] | – | – | – | IC50 [1]: 155 µM; Kd [2]: 30 µM
23 | COc1cc2c(c(OC)c1OC)-c1ccc(SC)c(=O)cc1[C@@H](NC(=O)c1cncc(C(=O)N[C@H]3CCc4cc(OC)c(OC)c(OC)c4-c4ccc(SC)c(=O)cc43)c1)CC2 [Compound 26] | – | – | – | IC50 [1]: 361 µM; Kd [2]: 28 µM
24 | COc1cc2c(c(OC)c1OC)-c1ccc(SC)c(=O)cc1[C@@H](NC(=O)C1CCCC(C(=O)N[C@H]3CCc4cc(OC)c(OC)c(OC)c4-c4ccc(SC)c(=O)cc43)C1)CC2 (some centres unmarked) [Compound 27] | – | – | – | Kd [2]: 52 µM
25 | COC1C=CC=C(C)C(=O)NC2=CC(=O)C(N3CC3C)=C(CC(C)CC(OC)C(O)C(C)C=C(C)C1OC(N)=O)C2=O (centres unmarked) [Compound 30, 17-METHYLAZIRIDINYL-17-DEMETHOXYGELDANAMYCIN] | – | – | 11.1 min and 11.6 min | IC50 [4]: 0.3 µM
26 | CC[C@@]1(O)C(=O)OCc2c1cc1n(c2=O)Cc2cc3cc(O)ccc3nc2-1 [Compound 32] | – | 6.1 | 1.9 min | IC50 [1]: 13 µM; Kd [2]: 1200 µM
27 | CC(=O)O[C@@]12CO[C@@H]1C[C@H](O)[C@@]1(C)C(=O)[C@H](O)C3=C(C)[C@@H](OC(=O)[C@H](O)[C@@H](NC(=O)OC(C)(C)C)c4ccccc4)C[C@@](O)([C@@H](OC(=O)c4ccccc4)[C@H]21)C3(C)C [Docetaxel, reference compound] | – | – | 9.0 min | Kd [2, 6]: 5.45 µM
28 | COC1=C2C[C@@H](C)C[C@H](OC)[C@H](O)[C@@H](C)/C=C(\C)[C@H](OC(N)=O)[C@@H](OC)/C=C\C=C(/C)C(=O)NC(=CC1=O)C2=O [Geldanamycin, reference compound] | 0.5 | – | 10.8 min | –
29 | CC(=O)O[C@H]1C(=O)[C@@]2(C)[C@H]([C@H](OC(=O)c3ccccc3)[C@]3(O)C[C@H](OC(=O)[C@H](O)[C@@H](NC(=O)c4ccccc4)c4ccccc4)C(C)=C1C3(C)C)[C@]1(OC(C)=O)CO[C@@H]1C[C@@H]2O [Paclitaxel, reference compound] | – | – | 10.5 min | Kd [2, 6]: 39.8 µM
30 | CO[C@H]1C[C@@H]2CC[C@@H](C)[C@@](O)(O2)C(=O)C(=O)N2CCCC[C@H]2C(=O)O[C@H]([C@H](C)C[C@@H]2CC[C@@H](O)[C@H](OC)C2)CC(=O)[C@H](C)/C=C(\C)[C@@H](O)[C@@H](OC)C(=O)[C@H](C)C[C@H](C)/C=C/C=C/C=C/1C [Rapamycin, reference compound] | 27 | – | – | Kd [2, 6]: 102 µM
31 | Benzoyl rapamycin [Compound 23] | – | – | – | HPLC retention time (min) Condition 2, column temperature 70° C. [3]: 32.6** min

From patent US20180318473A1, “DRUGS WITH IMPROVED HYDROPHOBICITY FOR INCORPORATION IN MEDICAL DEVICES” (Abraxis BioScience, LLC, priority 2005, published 2018)
